Values after ≈ are worked out from the molar mass of the structure shown. Active and inactive are the calls of the source.

The record followed here is ChEMBL document CHEMBL1153362, “Discovery of 6-({4-[2-(4-tert-butylphenyl)-1H-benzimidazol-4-yl]piperazin-1-yl}methyl)quinoxaline (WAY-207024): an orally active antagonist of the gonadotropin releasing hormone receptor (GnRH-R)” (J Med Chem, 2009).

Data set [1] has as its target T1, Gonadotropin-releasing hormone receptor (Homo sapiens, UniProt P30968).
T1 sequence (P30968 whole entry): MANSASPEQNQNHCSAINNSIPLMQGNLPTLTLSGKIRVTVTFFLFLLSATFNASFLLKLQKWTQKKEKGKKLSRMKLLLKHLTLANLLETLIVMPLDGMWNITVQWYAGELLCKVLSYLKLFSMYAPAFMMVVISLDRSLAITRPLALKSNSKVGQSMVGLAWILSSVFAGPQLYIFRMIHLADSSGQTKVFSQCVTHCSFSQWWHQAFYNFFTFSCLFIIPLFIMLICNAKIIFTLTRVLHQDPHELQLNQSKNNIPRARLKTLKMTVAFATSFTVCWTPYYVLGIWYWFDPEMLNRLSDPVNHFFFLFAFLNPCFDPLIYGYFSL
The data set can be described thus: Antagonist activity at human GnRH receptor assessed as inhibition of [D-Trp6]-GnRH-stimulated [3H]IP […]. The format is functional.

The target in data set [2] is T1, Gonadotropin-releasing hormone receptor. The data set is described as follows: Displacement of [D-Trp6]-GnRH from human recombinant GnRH receptor.
Data set [3] deals with T2, Gonadotropin-releasing hormone receptor (Rattus norvegicus, UniProt P30969).
T2 sequence (P30969 whole entry): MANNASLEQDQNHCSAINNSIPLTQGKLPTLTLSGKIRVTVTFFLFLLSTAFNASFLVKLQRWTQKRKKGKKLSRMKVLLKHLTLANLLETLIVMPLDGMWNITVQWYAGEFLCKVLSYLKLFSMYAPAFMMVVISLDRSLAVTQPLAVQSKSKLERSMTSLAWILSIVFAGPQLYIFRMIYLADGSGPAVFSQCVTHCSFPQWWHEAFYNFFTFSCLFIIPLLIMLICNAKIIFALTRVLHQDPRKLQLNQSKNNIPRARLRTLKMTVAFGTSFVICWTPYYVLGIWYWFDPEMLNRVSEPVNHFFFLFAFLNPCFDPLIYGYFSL
The data set can be described thus: Antagonist activity at rat recombinant GnRH receptor assessed as inhibition of [D-Trp6]-GnRH-stimulated LH release from rat pituitary cells. It is filed as functional, cell-based, Pituitary gland cell.

Data set [4] can be described thus: Aqueous solubility at pH 7.4. The format is physicochemical.
Data set [5] is described as follows: Permeability across artificial membrane. The following applies: PAMPA; read-out: permeability. It is filed as ADME. For orientation: PAMPA measures passive passage across an artificial lipid membrane.
The target of data set [6] is T2, Gonadotropin-releasing hormone receptor. The data set is described as follows: Displacement of [D-Trp6]-GnRH from rat recombinant GnRH receptor.
The nature of data set [7]: Metabolic stability in rat liver microsomes assessed as half life. The format is ADME, Microsome. A general note: Liver microsomes are a subcellular fraction often used to study metabolism.
Data set [8] in a line: Half life in castrated rat at 1 mg/kg, iv. It is filed as ADME, organism-based. Also on record: dose 1 mg/kg, route intravenous. The following applies: male, in vivo.
Data set [9] can be described thus: Clearance in castrated rat plasma at 1 mg/kg, iv. The format is ADME, organism-based. The settings on record: male. The arrangement: dose 1 mg/kg, route intravenous.
The nature of data set [10]: Volume of distribution at steady state in castrated rat at 1 mg/kg, iv. Also on record: dose 1 mg/kg, route intravenous. The format is ADME, organism-based. The following applies: male, in vivo, read-out: Vdss.
A short description of data set [11]: AUC (0 to infinity) in castrated rat at 1 mg/kg, iv. The arrangement: time infinity, dose 1 mg/kg, route intravenous. The settings on record: male, plasma. It is filed as ADME, organism-based.
The nature of data set [12]: Half life in castrated rat at 20 mg/kg, po. The arrangement: dose 20 mg/kg, route oral. The format is ADME, organism-based. The following applies: male, in vivo.
A short description of data set [13]: Cmax in castrated rat at 20 mg/kg, po. It is filed as ADME, organism-based. Also on record: dose 20 mg/kg, route oral. The settings on record: male, in vivo.
Data set [14] is described as follows: Tmax in castrated rat at 20 mg/kg, po. The format is ADME, organism-based. Also on record: dose 20 mg/kg, route oral. The settings on record: male, in vivo.
Data set [15] in a line: AUC (0 to infinity) in castrated rat at 20 mg/kg, po. Also on record: time infinity, dose 20 mg/kg, route oral. The format is ADME, organism-based. The settings on record: male, plasma.
The nature of data set [16]: Oral bioavailability in castrated rat at 20 mg/kg. It is filed as ADME, organism-based. The following applies: male, in vivo.
Data set [17] deals with Rattus norvegicus. The data set can be described thus: Reduction of serum LH level in castrated rat at 30 mg/kg, po after 1 hr. The arrangement: dose 30 mg/kg. It is filed as functional, organism-based.
In data set [18] the target is Voltage-gated inwardly rectifying potassium channel KCNH2 (Homo sapiens, UniProt Q12809). The data set can be described thus: Inhibition of human ERG potassium channel at 2 uM.
Data set [19] deals with Opioid receptors; mu/kappa/delta (Homo sapiens, UniProt P41145+P41143+P35372). The data set is described as follows: Inhibition of human non-selective opioid receptor.
The target in the next data set is T3, Substance-K receptor (Homo sapiens, UniProt P21452).
T3 sequence (P21452 whole entry): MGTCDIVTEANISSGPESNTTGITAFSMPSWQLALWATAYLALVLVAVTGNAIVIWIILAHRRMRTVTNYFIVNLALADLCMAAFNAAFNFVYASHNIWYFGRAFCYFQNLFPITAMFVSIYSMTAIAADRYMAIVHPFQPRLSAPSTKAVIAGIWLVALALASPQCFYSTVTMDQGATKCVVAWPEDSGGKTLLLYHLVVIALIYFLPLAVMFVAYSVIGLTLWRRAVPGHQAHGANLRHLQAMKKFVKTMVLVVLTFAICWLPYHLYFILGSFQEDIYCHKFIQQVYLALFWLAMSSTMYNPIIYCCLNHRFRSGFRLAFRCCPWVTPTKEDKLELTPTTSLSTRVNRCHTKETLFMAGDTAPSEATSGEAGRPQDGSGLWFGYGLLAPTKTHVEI
The data set can be described thus: Inhibition of human neurokinin NK2 receptor.

A further data set addresses Histamine H2 receptor (Homo sapiens, UniProt P25021). The data set can be described thus: Inhibition of human histamine H2 receptor.
In data set [20] the test system is Rattus norvegicus. The data set is described as follows: Reduction of serum LH level in castrated rat at 30 mg/kg, po after 6 hr. It is filed as functional, organism-based. The arrangement: dose 30 mg/kg.

Sequence of Voltage-gated inwardly rectifying potassium channel KCNH2 (Q12809 whole entry): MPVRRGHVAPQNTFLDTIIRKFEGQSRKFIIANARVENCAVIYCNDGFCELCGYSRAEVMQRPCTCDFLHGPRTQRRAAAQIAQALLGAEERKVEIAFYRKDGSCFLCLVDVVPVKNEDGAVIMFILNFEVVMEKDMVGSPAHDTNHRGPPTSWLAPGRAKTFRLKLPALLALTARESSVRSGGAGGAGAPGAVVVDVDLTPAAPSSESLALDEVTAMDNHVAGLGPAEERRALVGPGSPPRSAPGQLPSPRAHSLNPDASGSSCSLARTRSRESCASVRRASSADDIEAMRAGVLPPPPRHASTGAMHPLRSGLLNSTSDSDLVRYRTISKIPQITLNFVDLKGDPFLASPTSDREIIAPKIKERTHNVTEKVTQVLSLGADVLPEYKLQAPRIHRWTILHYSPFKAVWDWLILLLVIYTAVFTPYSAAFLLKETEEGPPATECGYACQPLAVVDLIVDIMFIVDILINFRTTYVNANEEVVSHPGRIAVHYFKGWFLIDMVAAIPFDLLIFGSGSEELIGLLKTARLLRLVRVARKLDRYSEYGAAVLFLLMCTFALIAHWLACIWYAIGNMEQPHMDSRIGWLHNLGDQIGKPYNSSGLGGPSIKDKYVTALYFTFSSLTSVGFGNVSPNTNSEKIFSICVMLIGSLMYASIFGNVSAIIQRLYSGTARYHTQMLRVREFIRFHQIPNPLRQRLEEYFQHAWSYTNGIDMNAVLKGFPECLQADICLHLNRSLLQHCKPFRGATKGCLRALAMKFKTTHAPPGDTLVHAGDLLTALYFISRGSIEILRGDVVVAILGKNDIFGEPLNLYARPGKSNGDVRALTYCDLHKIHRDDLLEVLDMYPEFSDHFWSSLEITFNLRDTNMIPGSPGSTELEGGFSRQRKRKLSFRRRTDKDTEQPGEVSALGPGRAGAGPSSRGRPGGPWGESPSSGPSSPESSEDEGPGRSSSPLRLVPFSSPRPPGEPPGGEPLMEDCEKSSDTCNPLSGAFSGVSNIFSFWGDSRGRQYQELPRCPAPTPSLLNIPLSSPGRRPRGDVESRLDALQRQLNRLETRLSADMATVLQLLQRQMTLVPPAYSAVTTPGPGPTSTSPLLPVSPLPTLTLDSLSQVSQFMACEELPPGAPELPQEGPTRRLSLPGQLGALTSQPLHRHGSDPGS
Sequence of Histamine H2 receptor (P25021 whole entry): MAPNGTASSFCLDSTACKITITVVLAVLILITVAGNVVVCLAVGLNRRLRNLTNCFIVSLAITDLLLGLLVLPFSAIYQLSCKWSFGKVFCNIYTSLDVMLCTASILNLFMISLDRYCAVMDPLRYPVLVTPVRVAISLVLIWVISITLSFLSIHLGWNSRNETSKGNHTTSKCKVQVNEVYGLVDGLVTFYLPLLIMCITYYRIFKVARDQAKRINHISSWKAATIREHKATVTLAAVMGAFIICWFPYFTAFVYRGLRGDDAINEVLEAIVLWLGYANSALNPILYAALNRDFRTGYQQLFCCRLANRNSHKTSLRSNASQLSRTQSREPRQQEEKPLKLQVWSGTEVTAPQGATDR

By IC50 is commonly meant the concentration that gives 50% inhibition. In general, solubility refers to the concentration that dissolves in the medium under given conditions. Read a high solubility as a readily soluble substance. In the case of `CC(C)(C)c1ccc(-c2nc3c(N4CCN(Cc5ccc6ncccc6c5)CC4)cccc3[nH]2)cc1`, the figures for the IC50 in data set [1], in data set [2] and in data set [3] were 64 nM, 21 nM and 830 nM, respectively. Also, in data set [4], the solubility was found to be 2 µg/mL (≈ 4.2 µM). Moreover, the Papp in data set [5] worked out at 0.4 ×10⁻⁶ cm/s.
For orientation: half-life means the time needed for the level to fall by half in the phase considered. As to `CC(C)(C)c1ccc(-c2nc3c(N4CCN(Cc5ccc6[nH]c(=O)c(=O)n(Cc7cccnc7)c6c5)CC4)cccc3[nH]2)cc1`, the IC50 was 47 nM in [6], 14 nM in data set [1], 5.6 nM in [2] and 69 nM in data set [3]. In data set [4], this compound displayed a solubility of less than 1 µg/mL. Further, in data set [7], the half-life amounted to 10 min. In addition, the Papp in data set [5] amounted to 0.05 ×10⁻⁶ cm/s.
Broadly, the clearance is the volume of plasma or blood freed of the substance per unit of time. A lower clearance goes with a low capacity for elimination. One may read the AUC(0-inf) as the area under the concentration-time curve extrapolated to infinity. Read a high AUC(0-inf) as more exposure. Broadly, the Cmax is the peak of the concentration-time curve. By Tmax is commonly meant the time at which the peak concentration occurs. As usually defined, the bioavailability is dose-corrected exposure relative to a reference, in per cent. The low end stands for little systemic uptake, the high end for much systemic uptake. One may read the Ki as a measure of affinity in units of concentration, obtained from inhibition or displacement. Read a low Ki as tighter binding. For `CC(C)(C)c1ccc(-c2nc3c(N4CCN(Cc5ccc6nccnc6c5)CC4)cccc3[nH]2)cc1`, the half-inhibitory concentration (IC50) was determined as 71 nM in data set [6], 28 nM in data set [1], 12 nM in data set [2] and 350 nM in [3]. For the same compound, the results for the half-life in [7], in data set [8] and in data set [12] were 16 min, 162 min and 222 min, respectively. In addition, the Papp in [5] was 0.23 ×10⁻⁶ cm/s. In addition, the clearance in data set [9] turned out to be 38 mL/min/kg. In addition, the Vd in [10] worked out at 6.1 L/kg. The results for the area under the curve AUC(0-inf) in data set [11] and in [15] were 447 ng·h/mL and 6640 ng·h/mL, respectively. For the same compound, the highest level in [13] (Cmax) was 1330 ng/mL. The time to peak (Tmax) in data set [14] turned out to be 120 min. The same compound had a bioavailability in data set [16] of 74%. In addition, the result in the data set with Rattus norvegicus [17] and in the data set with Rattus norvegicus [20] was Active. For the same compound, the Activity result in data set [18] was “Not Active”. For the same compound, the Ki in data set [19] is 550 nM; on Substance-K receptor, 330 nM; at Histamine H2 receptor, 850 nM.
Turning to `CC(C)(C)c1ccc(-c2nc3c(N4CCN(Cc5ccc6[nH]c(=O)c(=O)[nH]c6c5)CC4)cccc3[nH]2)cc1`, in data set [4], the solubility is less than 1 µg/mL. In addition, the half-life in [7] was 14 min. Moreover, the Papp in [5] is less than 0.1 ×10⁻⁶ cm/s.
As for `Cn1c(=O)c(=O)[nH]c2ccc(CN3CCN(c4cccc5[nH]c(-c6ccc(C(C)(C)C)cc6)nc45)CC3)cc21`, the IC50 in data set [6] came out at 17 nM; in data set [1], 7.4 nM; in data set [2] it was 3.5 nM; in data set [3], 44 nM. The same compound returned a solubility in [4] of less than 1 µg/mL.
For `CC(C)(C)c1ccc(-c2nc3c(N4CCN(Cc5cccc6nccnc56)CC4)cccc3[nH]2)cc1`, the IC50 was 400 nM in data set [1], 26 nM in data set [2] and 5900 nM in [3].
Take `CC(C)(C)c1ccc(-c2nc3c(N4CCN(Cc5cnc6[nH]c(=O)c(=O)[nH]c6c5)CC4)cccc3[nH]2)cc1`: the IC50 stood at 33 nM in data set [6], 9.7 nM in data set [1], 1.8 nM in data set [2] and 240 nM in data set [3]. Further, in data set [4], the solubility amounted to 4 µg/mL (≈ 7.85 µM). Moreover, the half-life in data set [7] stood at 30 min. For the same compound, in [5], the Papp is less than 0.1 ×10⁻⁶ cm/s.
On to `CC(C)(C)c1ccc(-c2nc3c(N4CCN(Cc5ccc6c(c5)NCC(=O)N6)CC4)cccc3[nH]2)cc1`, for which the IC50 amounted to 87 nM in data set [6], 16 nM in [1], 16 nM in data set [2] and 120 nM in data set [3]. Moreover, the solubility in data set [4] turned out to be 1 µg/mL (≈ 2.02 µM). For the same compound, the half-life in data set [7] came to 3 min. Also, the Papp in data set [5] was 0.05 ×10⁻⁶ cm/s.
Regarding `CC(C)(C)c1ccc(-c2nc3c(N4CCN(Cc5ccc6cccnc6c5)CC4)cccc3[nH]2)cc1`, the IC50 in [1] was found to be 140 nM; in [2], 24 nM; in data set [3], 540 nM. Moreover, the solubility in data set [4] turned out to be 4 µg/mL (≈ 8.41 µM). Moreover, the Papp in data set [5] was determined as 1.5 ×10⁻⁶ cm/s.
